Source: US20250100963A1, “SULFONATED AND PHOSPHORYLATED AROMATIC MOLECULES” (Xavier University of Louisiana, priority 2023, published 2025)
Like-named read-outs stand apart in the source and are kept apart here. One block for each compound: values may come before it.

Legend:
CatG [1] = target: T1, CatG (Homo sapiens, UniProt P08311); assay: Direct inhibition of human CatG, chromogenic substrate hydrolysis assay; format: biochemical
T1 sequence (P08311 21-244): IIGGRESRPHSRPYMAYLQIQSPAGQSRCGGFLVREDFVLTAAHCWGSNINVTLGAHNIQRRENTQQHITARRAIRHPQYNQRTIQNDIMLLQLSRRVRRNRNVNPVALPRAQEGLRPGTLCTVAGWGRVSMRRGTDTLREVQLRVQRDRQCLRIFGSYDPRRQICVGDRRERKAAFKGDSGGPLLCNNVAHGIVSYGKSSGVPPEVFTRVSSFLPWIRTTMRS
Experimental: The method further comprises inhibition of proteases. […] To each well of a 96-well microplate containing 88 μl of 20 mM tris buffer containing 100 mM NaCl, 2.5 mM CaCl2, 0.1% PEG 8000 and 0.05% tween 80 was added 3 μl of CatG (final concentration of 30 nM), and 5 μl of H2O or potential inhibitor (final concentration of 0-100 μM). Following a 5-min incubation, 3 μl of CatG substrate was added (final concentration 750 μM) and the residual CatG activity was obtained from the initial rate of increase of absorbance at 405 nm. The relative residual activity of CatG at each of the inhibitor concentrations was obtained from the ratio of CatG activity in the presence and absence of the inhibitor. Logistic Equation (1) was used to plot the dose-dependence curve to obtain the IC50 (potency) and efficacy of CatG inhibition. Here, Y is the ratio of residual CatG activity in the presence of inhibitor to that in its absence, YO and YM are the minimum and maximum values of fractional residual CatG activity, respectively, IC50 is the concentration of the inhibitor that results in 50% inhibition of CatG activity and HS is the Hill slope.
To each well of a 96-well microplate containing 88 μl of 20 mM tris buffer containing 100 mM NaCl, 2.5 mM CaCl2, 0.1% PEG 8000 and 0.05% tween 80 was added 3 μl of CatG (final concentration of 30 nM), and 5 μl of H2O or potential inhibitor (final concentration of 0-100 μM). Following a 5-min incubation, 3 μl of CatG substrate was added (final concentration 750 μM) and the residual CatG activity was obtained from the initial rate of increase of absorbance at 405 nm. The relative residual activity of CatG at each of the inhibitor concentrations was obtained from the ratio of CatG activity in the presence and absence of the inhibitor. Logistic Equation (1) was used to plot the dose-dependence curve to obtain the IC50 (potency) and efficacy of CatG inhibition. Here, Y is the ratio of residual CatG activity in the presence of inhibitor to that in its absence, YO and YM are the minimum and maximum values of fractional residual CatG activity, respectively, IC50 is the concentration of the inhibitor that results in 50% inhibition of CatG activity and HS is the Hill slope.

Human FXIa = Human FXIa (Homo sapiens, UniProt P03951); assay: Direct inhibition of FXIa, chromogenic substrate hydrolysis assay; format: biochemical; details: Tris-HCl buffer
Experimental: (§1) Direct inhibitions of thrombin (FIIa), factor VIIa (FVIIa), factor IXa (FIXa), factor Xa (FXa), FXIa, factor XIIa (FXIIa), trypsin and chymotrypsin were evaluated using the corresponding chromogenic substrate hydrolysis assays as previously reported. Briefly, to each well of a 96-well microplate containing 85-185 μl of […] Tris buffer containing 100 mM NaCl, 2.5 mM CaCl2, 0.1% PEG 8000, and 0.05% tween 80 at 25 (thrombin) or 37° C. (FVIIa, FIXa, FXa, FXIa, FXIIa, chymotrypsin, and trypsin) were added 5 μl of enzyme (thrombin, FVIIa, FIXa, FXa, FXIa, FXIIa, chymotrypsin, and trypsin) and 5 μl of the inhibitor. Following an incubation period of 5 min, the appropriate chromogenic substrates (Spectrozyme TH, Spectrozyme FIXa, Spectrozyme FXa, S-2366, Spectrozyme FXIIa and S-2222) were added and the residual enzyme activity was measured from the initial rate of increase in absorbance at 405 nm. Relative residual enzyme activity as a function of the inhibitor concentration was fitted using Logistic Equation (1) to obtain the IC50 (potency), A Y % (efficacy) of enzyme inhibition, and HS (Hill slope). The concentrations of enzymes and substrates in microplate cells were: 6 nM and 50 μM for thrombin; 1.09 nM and 125 μM for FXa; 5 nM and 125 μM for FXIIa; 89 nM and 850 μM for FIXa; 8 nM and 1000 µM for FVIIa (along with 40 nM recombinant tissue factor); 72.5 ng/ml and 80 μM for bovine trypsin; and 500 ng/ml and 240 μM for bovine chymotrypsin.

Thrombin (human FIIa) = Thrombin (human FIIa) (Homo sapiens, UniProt P00734); assay: Direct inhibition of thrombin, chromogenic substrate hydrolysis assay; format: biochemical; details: Tris-HCl buffer; estimated from the highest concentration used
Experimental: as §1, with “The concentrations of enzymes and substrates in microplate cells were: 6 nM and 50 μM for thrombin; 1.09 nM and 125 μM for FXa; 5 nM and 125 μM for FXIIa; 89 nM and 850 μM for FIXa; 8 nM and 1000 µM for FVIIa (along with 40 nM recombinant tissue factor); 72.5 ng/ml and 80 μM for bovine trypsin; and 500 ng/ml and 240 μM for bovine chymotrypsin.” left out

FXa = target: T2, FXa (Homo sapiens, UniProt P00742); assay: Direct inhibition of FXa, chromogenic substrate hydrolysis assay; format: biochemical; details: Tris-HCl buffer
T2 construct: factor Xa (FXa), FXIa, factor XIIa (FXIIa), trypsin and chymotrypsin
Experimental: as §1, with “The concentrations of enzymes and substrates in microplate cells were: 6 nM and 50 μM for thrombin; 1.09 nM and 125 μM for FXa; 5 nM and 125 μM for FXIIa; 89 nM and 850 μM for FIXa; 8 nM and 1000 µM for FVIIa (along with 40 nM recombinant tissue factor); 72.5 ng/ml and 80 μM for bovine trypsin; and 500 ng/ml and 240 μM for bovine chymotrypsin.” left out

CatG [2] = target: T1, CatG; details: reported; read-out: estimated Ki, allosteric inhibitor; cited from earlier work
[3] = Tris buffer pH 7.4, 37° C., 100 mM NaCl, read-out: IC50

Human FXIa, sequence (P03951 388-625): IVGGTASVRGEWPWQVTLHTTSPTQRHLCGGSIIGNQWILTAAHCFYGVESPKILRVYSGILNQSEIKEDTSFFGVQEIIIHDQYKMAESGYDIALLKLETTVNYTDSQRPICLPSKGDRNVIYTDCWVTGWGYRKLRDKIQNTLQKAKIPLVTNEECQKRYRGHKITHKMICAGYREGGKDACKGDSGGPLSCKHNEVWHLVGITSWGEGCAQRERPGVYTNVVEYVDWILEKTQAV
Human FXIa, sequence (P03951 19-387 partner): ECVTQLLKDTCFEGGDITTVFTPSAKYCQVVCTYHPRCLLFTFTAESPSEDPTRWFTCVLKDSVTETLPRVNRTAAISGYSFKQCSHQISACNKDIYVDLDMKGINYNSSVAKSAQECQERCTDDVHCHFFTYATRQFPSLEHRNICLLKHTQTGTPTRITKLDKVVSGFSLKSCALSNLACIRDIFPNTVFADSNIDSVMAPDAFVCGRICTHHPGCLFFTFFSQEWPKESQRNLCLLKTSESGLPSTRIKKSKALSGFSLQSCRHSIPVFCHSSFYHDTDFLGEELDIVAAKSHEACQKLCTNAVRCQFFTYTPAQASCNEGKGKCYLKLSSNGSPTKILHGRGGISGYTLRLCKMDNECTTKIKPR
T2 sequence (P00742 235-488): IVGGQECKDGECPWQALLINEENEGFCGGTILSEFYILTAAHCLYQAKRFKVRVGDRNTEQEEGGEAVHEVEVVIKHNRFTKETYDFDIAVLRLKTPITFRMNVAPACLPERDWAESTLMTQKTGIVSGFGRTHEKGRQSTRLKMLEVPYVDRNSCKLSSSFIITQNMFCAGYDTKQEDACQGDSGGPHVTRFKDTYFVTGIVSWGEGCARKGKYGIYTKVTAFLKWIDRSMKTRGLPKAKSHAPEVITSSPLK
T2 sequence (P00742 41-179 partner): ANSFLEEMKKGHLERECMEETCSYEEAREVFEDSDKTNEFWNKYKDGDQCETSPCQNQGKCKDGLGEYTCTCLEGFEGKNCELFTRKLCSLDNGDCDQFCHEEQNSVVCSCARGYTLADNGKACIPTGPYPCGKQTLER

Compound: O=C(Nc1cc(C(=O)Nc2ccccc2S(=O)(=O)O)cc(C(=O)Nc2ccccc2S(=O)(=O)O)c1)Nc1cc(C(=O)Nc2ccccc2S(=O)(=O)O)cc(C(=O)Nc2ccccc2S(=O)(=O)O)c1 [2,2′,2″,2″′-((5,5′-(carbonylbis(azanediyl))bis(isophthaloyl))tetrakis(azanediyl))tetrabenzenesulfonic acid]
- IC50 (CatG [1]; Table 6, read-out: CATG IC50): 1 to 5 µM

Compound: O=C(Nc1cccc(C(=O)Nc2ccc(CP(=O)(O)O)cc2CP(=O)(O)O)c1)Nc1cccc(C(=O)Nc2ccc(CP(=O)(O)O)cc2CP(=O)(O)O)c1 [((((3,3′-(carbonylbis(azanediyl))bis(4-methylbenzoyl))bis(azanediyl))bis(benzene-4,1,3-triyl))tetrakis(methylene))tetrakis(phosphonic acid)]
- IC50 (CatG [1]; Table 6, read-out: CATG IC50): 1 to 10 µM

Compound: O=C(Nc1cc(C(=O)Nc2ccc(S(=O)(=O)O)cc2)cc(C(=O)Nc2ccc(S(=O)(=O)O)cc2)c1)Nc1cc(C(=O)Nc2ccc(S(=O)(=O)O)cc2)cc(C(=O)Nc2ccc(S(=O)(=O)O)cc2)c1 [Formula I, 4,4′,4″,4″-((5,5′-(carbonylbis(azanediyl))bis(isophthaloyl))tetrakis(azanediyl))tetrabenzenesulfonic acid]
- IC50 (CatG [1]; Table 6, read-out: CATG IC50): 0.83 µM
- HS (Hill slope) (CatG [1]; Tris buffer pH 7.4, 37° C.): 1.7 ± 0.4
- ΔY (efficacy) (CatG [1]; Tris buffer pH 7.4, 37° C.): 91.9 ± 6.8%
- IC50 (CatG [1]; [3]): 0.083 ± 0.14 µM
- HS (Hill slope) (Human FXIa): 1.2 ± 0.2
- IC50 (Human FXIa): 29.5 ± 4.6 µM
- ΔY (efficacy) (Human FXIa): 90.9 ± 5.8%
- IC50 (Thrombin (human FIIa)): > 100 µM
- IC50 (FXa): > 100 µM

Compound: Cc1ccc(C(=O)Nc2ccc(CP(=O)(O)O)cc2CP(=O)(O)O)cc1NC(=O)Nc1cc(C(=O)Nc2ccc(CP(=O)(O)O)cc2CP(=O)(O)O)ccc1C [((((3,3′-(carbonylbis(azanediyl))bis(4-methylbenzoyl))bis(azanediyl))bis(4,1-phenylene))bis(methylene))bis(phosphonic acid)]
- IC50 (CatG [1]; Table 6, read-out: CATG IC50): 10 to 100 µM

Compound: Cc1ccc(C(=O)Nc2ccc(CP(=O)(O)O)cc2)cc1NC(=O)c1cccc(NC(=O)Nc2cccc(C(=O)Nc3cc(C(=O)Nc4ccc(CP(=O)(O)O)cc4)ccc3C)c2)c1 [((((3,3′-((3,3′-(carbonylbis(azanediyl))bis(benzoyl))bis(azanediyl))bis(4-methylbenzoyl))bis(azanediyl))bis(4,1-phenylene))bis(methylene))bis(phosphonic acid)]
- IC50 (CatG [1]; Table 6, read-out: CATG IC50): 10 to 100 µM

Compound: O=C(Nc1cc(C(=O)Nc2cc(S(=O)(=O)O)ccc2S(=O)(=O)O)cc(C(=O)Nc2cc(S(=O)(=O)O)ccc2S(=O)(=O)O)c1)Nc1cc(C(=O)Nc2cc(S(=O)(=O)O)ccc2S(=O)(=O)O)cc(C(=O)Nc2cc(S(=O)(=O)O)ccc2S(=O)(=O)O)c1 [2,2′,2″,2″′-((5,5′-(carbonylbis(azanediyl))bis(isophthaloyl))tetrakis(azanediyl))tetrakis(benzene-1,4-disulfonic acid)]
- IC50 (CatG [1]; Table 6, read-out: CATG IC50): 1 to 5 µM

Compound: heparin
- Ki (CatG [2]): < 25 pM

Continued, values first:

- IC50 (CatG [1]; Table 6, read-out: CATG IC50): 3.1 µM
- HS (Hill slope) (CatG [1]; Tris buffer pH 7.4, 37° C.): 1.1 ± 0.1
- ΔY (efficacy) (CatG [1]; Tris buffer pH 7.4, 37° C.): 87.5 ± 1.8%
- IC50 (CatG [1]; [3]): 3.1 µM
- HS (Hill slope) (Human FXIa): 1.9 ± 0.5
- ΔY (efficacy) (Human FXIa): 68.0 ± 3.7%
- IC50 (Thrombin (human FIIa)): > 500 µM
- IC50 (FXa): > 100 µM
Compound: Cc1ccc(C(=O)Nc2ccc(CP(=O)(O)O)cc2CP(=O)(O)O)cc1NC(=O)c1cccc(NC(=O)Nc2cccc(C(=O)Nc3cc(C(=O)Nc4ccc(CP(=O)(O)O)cc4CP(=O)(O)O)ccc3C)c2)c1 [Formula III, ((((3,3′-((3,3′-(carbonylbis(azanediyl))bis(benzoyl))bis(azanediyl))bis(4-methylbenzoyl))bis(azanediyl))bis(benzene-4,1,3-triyl))tetrakis(methylene))tetrakis(phosphonic acid)]

- IC50 (CatG [1]; Table 6, read-out: CATG IC50): 0.5 to 1 µM
Compound: O=C(Nc1cc(C(=O)Nc2ccc(S(=O)(=O)O)cc2)cc(C(=O)Nc2ccc(S(=O)(=O)O)cc2S(=O)(=O)O)c1)Nc1cc(C(=O)Nc2ccc(S(=O)(=O)O)cc2)cc(C(=O)Nc2ccc(S(=O)(=O)O)cc2S(=O)(=O)O)c1 [4,4′-((3,3′-(carbonylbis(azanediyl))bis(5-((4-sulfophenyl)carbamoyl)benzoyl))bis(azanediyl))bis(benzene-1,3-disulfonic acid)]

- IC50 (CatG [1]; Table 6, read-out: CATG IC50): 1 to 10 µM
Compound: O=C(Nc1cccc(C(=O)Nc2cccc(C(=O)Nc3cccc(P(=O)(O)O)c3)c2)c1)Nc1cccc(C(=O)Nc2cccc(C(=O)Nc3cccc(P(=O)(O)O)c3)c2)c1 [(((3,3′-((3,3′-(carbonylbis(azanediyl))bis(benzoyl))bis(azanediyl))bis(benzoyl))bis(azanediyl))bis(3,1-phenylene))bis(phosphonic acid)]
